{
  "source": "patent US20050096282A1",
  "about": "“Adeno-associated virus-delivered ribozyme compositions and methods for the treatment of retinal diseases” (priority 1997, published 2005)",
  "key": {"[1]": {"test_system": "adenosine A2b receptor mRNA", "assay": "Ribozyme kinetic analysis, A2B", "assay_type": "biochemical", "description": "(§1) The chief characteristic of diabetic retinopathy is retinal neovascularization-the pathologic spread of blood vessels in the eye. Unique ribozymes have been developed which target the mRNAs that encode various proteins involved in this process. These include ribozymes directed at the wild-type mRNA for the adenosine A2b receptor, for IGF-I (insulin-like growth factor-1) receptor, for inducible nitric oxide synthase (iNOS), and for several integrins implicated in retinal neovascularization (e.g., alpha1, alpha3, alphaV). Also shown in Table 7 are the analyses of P347S ribozymes, that are specific for another mutant form of the rod opsin polypeptide."}, "[2]": {"test_system": "alpha1 integrin mRNA", "assay": "Ribozyme kinetic analysis, alpha 1 integrin", "assay_type": "biochemical", "description": "as §1"}, "[3]": {"test_system": "HREC", "assay": "BrdU incorporation (DNA synthesis) in HRECs", "assay_type": "cell-based, human", "conditions": "XAC 10 μM; CPX 20 nM; SCH58261 60 nM", "description": "The subtype of adenosine receptor (A2B) that mediates the proliferative effect of adenosine on HREC was determined by the following studies. […] In contrast, neither the A2A adenosine receptor agonist CGS21680 (2-p-(2-carboxyethyl) phenethylamino-5′-N-ethylcarboxamidoadenosine) at concentrations ranging from 10 nM to 10 μM, nor the A1 adenosine receptor agonist CPA (N^6-cyclopentyladenosine) at concentrations ranging from 10 nM to 10 μM increased BrdU incorporation by HRECs. […] In contrast, neither the selective A1 adenosine receptor antagonist CPX (8-cyclopentyl-1,3-dipropylxanthine) at 20 nM, nor the selective A2A adenosine receptor antagonist SCH58261 (5-amino-7-(2-phenylethyl)-2-(2-furyl)-pyrazolo(4,3-E)-1,2,4-trizolo(1,5-c) pyrimidine) at 60 nM attenuated the stimulatory effect of NECA on BrdU incorporation by HRECs. These findings indicate that the proliferative effects of NECA are mediated by the A2B adenosine receptor in HREC in culture (Table 3)."}, "[4]": {"test_system": "HREC", "assay": "cAMP content of intact HRECs", "assay_type": "cell-based, human", "conditions": "NECA 10 μM", "description": "The cAMP content of intact HRECs following treatment with adenosine receptor agonists and antagonists was next examined. […] The effect of selective A1 and A2A adenosine receptor antagonists on NECA-induced accumulation of cAMP was also examined."}, "[5]": {"test_system": "P347S rod opsin mRNA target AGGCGUCAGCCUA", "assay": "Ribozyme kinetic analysis, P347S pig", "assay_type": "biochemical", "description": "as §1"}, "[6]": {"test_system": "alpha3 integrin mRNA", "assay": "Ribozyme kinetic analysis, alpha 3 integrin", "assay_type": "biochemical", "description": "as §1"}, "[7]": {"test_system": "alphaV integrin mRNA", "assay": "Ribozyme kinetic analysis, alpha V integrin", "assay_type": "biochemical", "description": "as §1"}, "[8]": {"conditions": "per experiment, target CAUGUCUCUUUG"}, "[9]": {"conditions": "per experiment, Rz 1 target AGAUGUCUAUAAG, Rz 2 target GAGAGUCUCAUGA"}, "[10]": {"conditions": "per experiment, Rz 1 target CUAUGCCUUCAUG, Rz 2 target CGCUGUCUUCCAC"}, "[11]": {"conditions": "per experiment, Rz 1 target GCGCGUCUUCCCG, Rz 2 target ACUGGUCUUCUAC"}},
  "note": "Where “and” joins values, the source holds several entries; their conditions need not be identical. Equal values may be shown once.",
  "data": [
    {"molecule": "A2B Rz 1: hammerhead ribozyme CAAAGACUGAUGAGCCGUUCGCGGCGAAACAUGU (SEQ ID NO:90), adenosine A2b receptor mRNA (RNA, backbone not given here)", "values": [
      {"measurement": "Km", "setting": "[1]; mean", "result": 4.35, "unit": "µM"},
      {"measurement": "Vmax", "setting": "[1]; mean", "result": 541.7, "unit": "nM/min"},
      {"measurement": "kcat", "setting": "[1]; mean", "result": 36.1, "unit": "min − 1"},
      {"measurement": "Km", "setting": "[1]; [8]", "result": "5.07 µM and 3.63 µM"},
      {"measurement": "Vmax", "setting": "[1]; [8]", "result": "666.7 nM/min and 416.7 nM/min"},
      {"measurement": "kcat", "setting": "[1]; [8]", "result": "44.4 min − 1 and 27.8 min − 1"}
    ]},
    {"molecule": "alpha 1 Rz 1: ribozyme CUUAUACUGAUGAGCCGUUCGCGGCGAAACAUCU (SEQ ID NO:96), alpha1 integrin mRNA (RNA, backbone not given here)", "values": [
      {"measurement": "Km", "setting": "[2]; mean", "result": 25.6, "unit": "µM"},
      {"measurement": "Vmax", "setting": "[2]; mean", "result": 57.0, "unit": "nM/min"},
      {"measurement": "kcat", "setting": "[2]; mean", "result": 3.8, "unit": "min − 1"},
      {"measurement": "Vmax", "setting": "[2]; [9]", "result": "61.7 nM/min and 52.4 nM/min"},
      {"measurement": "kcat", "setting": "[2]; [9]", "result": "4.1 min − 1 and 3.5 min − 1"}
    ]},
    {"molecule": "Nc1nc2c(cnn2CCc2ccccc2)c2nc(-c3ccco3)nn12", "note": "[SCH58261, 5-amino-7-(2-phenylethyl)-2-(2-furyl)-pyrazolo(4,3-E)-1,2,4-trizolo(1,5-c) pyrimidine]", "values": [
      {"measurement": "attenuation of NECA-stimulated BrdU incorporation by HRECs", "setting": "[3]", "result": "neither"},
      {"measurement": "inhibition of NECA-induced increase in cAMP content in HRECs", "setting": "[4]", "result": "not signficantly inhibited"}
    ]},
    {"molecule": "CCCn1c(=O)c2[nH]c(C3CCCC3)nc2n(CCC)c1=O", "note": "[CPX, 8-cyclopentyl-1,3-dipropylxanthine]", "values": [
      {"measurement": "attenuation of NECA-stimulated BrdU incorporation by HRECs", "setting": "[3]", "result": "neither"},
      {"measurement": "inhibition of NECA-induced increase in cAMP content in HRECs", "setting": "[4]", "result": "not signficantly inhibited"}
    ]},
    {"molecule": "P347S pig: ribozyme UAGGCUCUGAUGAGCCGCUUCGGCGGCAAACGCCU (SEQ ID NO:102), P347S mutant rod opsin mRNA (listed as RNA, chemistry not given here)", "values": [
      {"measurement": "Km", "setting": "[5]; mean", "result": 2050, "unit": "nM"},
      {"measurement": "Vmax", "setting": "[5]; mean", "result": 7.3, "unit": "nM/min"},
      {"measurement": "kcat", "setting": "[5]; mean", "result": 1.5, "unit": "min − 1"},
      {"measurement": "Km", "setting": "[5]; per experiment", "result": "1650 nM and 1680 nM and 2840 nM"},
      {"measurement": "kcat", "setting": "[5]; per experiment", "result": "1.8 min − 1 and 2.2 min − 1 and 1.3 min − 1 and 1.1 min − 1 and 1.2 min − 1"}
    ]},
    {"molecule": "alpha 3 Rz 1: ribozyme CAUGAACUGAUGAGCCGUUCGCGGCGAAACAUAG (SEQ ID NO:92), alpha3 integrin mRNA (RNA, backbone not given here)", "values": [
      {"measurement": "Km", "setting": "[6]; mean", "result": 4160, "unit": "nM"},
      {"measurement": "Vmax", "setting": "[6]; mean", "result": 6.2, "unit": "nM/min"},
      {"measurement": "kcat", "setting": "[6]; mean", "result": 0.4, "unit": "min − 1"},
      {"measurement": "Km", "setting": "[6]; [10]", "result": "3620 nM and 4690 nM"},
      {"measurement": "Vmax", "setting": "[6]; [10]", "result": "5.4 nM/min and 6.9 nM/min"},
      {"measurement": "kcat", "setting": "[6]; [10]", "result": "0.4 min − 1 and 0.5 min − 1"}
    ]},
    {"molecule": "alpha V Rz 1: ribozyme CGGGAACUGAUGAGCCGUUCGCGGCGAAACGCGC (SEQ ID NO:98), alphaV integrin mRNA (RNA, backbone not given here)", "values": [
      {"measurement": "Km", "setting": "[7]; mean", "result": 5.2, "unit": "µM"},
      {"measurement": "Vmax", "setting": "[7]; mean", "result": 33.4, "unit": "nM/min"},
      {"measurement": "kcat", "setting": "[7]; mean", "result": 2.2, "unit": "min − 1"},
      {"measurement": "Km", "setting": "[7]; [11]", "result": "4.98 µM and 5.41 µM"},
      {"measurement": "Vmax", "setting": "[7]; [11]", "result": "30.5 nM/min and 36.2 nM/min"},
      {"measurement": "kcat", "setting": "[7]; [11]", "result": "2.0 min − 1 and 2.4 min − 1"}
    ]},
    {"molecule": "alpha V Rz 2: ribozyme GUAGAACUGAUGAGCCGUUCGCGGCGAAACCAGU (SEQ ID NO:99), alphaV integrin mRNA (RNA, backbone not given here)", "values": [
      {"measurement": "Km", "setting": "[7]; mean", "result": 11.3, "unit": "µM"},
      {"measurement": "Vmax", "setting": "[7]; mean", "result": 285.7, "unit": "nM/min"},
      {"measurement": "kcat", "setting": "[7]; mean", "result": 19.1, "unit": "min − 1"},
      {"measurement": "Km", "setting": "[7]; [11]", "result": "8.54 µM and 14 µM"},
      {"measurement": "Vmax", "setting": "[7]; [11]", "result": "238.1 nM/min and 333.3 nM/min"},
      {"measurement": "kcat", "setting": "[7]; [11]", "result": "15.9 min − 1 and 22.2 min − 1"}
    ]},
    {"molecule": "alpha 1 Rz 2: ribozyme UCAUGACUGAUGAGCCGUUCGCGGCGAAACUCUC (SEQ ID NO:97), alpha1 integrin mRNA (RNA, backbone not given here)", "values": [
      {"measurement": "Km", "setting": "[2]; mean", "result": 42.2, "unit": "µM"},
      {"measurement": "Vmax", "setting": "[2]; mean", "result": 42.2, "unit": "nM/min"},
      {"measurement": "kcat", "setting": "[2]; mean", "result": 2.9, "unit": "min − 1"},
      {"measurement": "Km", "setting": "[2]; [9]", "result": "30.6 µM and 53.8 µM"},
      {"measurement": "Vmax", "setting": "[2]; [9]", "result": "31.0 nM/min and 53.5 nM/min"},
      {"measurement": "kcat", "setting": "[2]; [9]", "result": "2.1 min − 1 and 3.6 min − 1"}
    ]},
    {"molecule": "alpha 3 Rz 2: ribozyme GUGGAACUGAUGAGCCGUUCGCGGCGAAACAGCG (SEQ ID NO:93), alpha3 integrin mRNA (RNA, backbone not given here)", "values": [
      {"measurement": "Km", "setting": "[6]; mean", "result": 1450, "unit": "nM"},
      {"measurement": "Vmax", "setting": "[6]; mean", "result": 2.5, "unit": "nM/min"},
      {"measurement": "kcat", "setting": "[6]; mean", "result": 0.2, "unit": "min − 1"},
      {"measurement": "Km", "setting": "[6]; [10]", "result": "1660 nM and 1240 nM"},
      {"measurement": "Vmax", "setting": "[6]; [10]", "result": "2.8 nM/min and 2.2 nM/min"},
      {"measurement": "kcat", "setting": "[6]; [10]", "result": 0.2, "unit": "min − 1"}
    ]}
  ]
}
